The subject of the data set is CCRIS mutagenicity, Ames/micronucleus/aberration tests. The experiment in a line: CCRIS mutagenicity studies.
Setting [1] is: Test System: AMES SALMONELLA TYPHIMURIUM, Strain/Indicator: TA98, Metabolic Activation: NONE, Method: PREINCUBATION
Setting [2] is: Test System: AMES SALMONELLA TYPHIMURIUM, Strain/Indicator: TA100, Metabolic Activation: NONE, Method: PREINCUBATION

SMILES strings stand for the structures. The source made the active and inactive calls. The rule behind the calls is not given here.

On to `O=[N+]([O-])c1ccc(S(=O)(=O)O)cc1`, for which the mutagenic call under setting [1] is “inactive; negative”; the mutagenic call (Test System: AMES SALMONELLA TYPHIMURIUM, Strain/Indicator: TA98, Metabolic Activation: RAT, LIVER, S-9, KANECHLOR 500, Method: PREINCUBATION) is “inactive; negative”; the mutagenic call under setting [2] is “inactive; negative”; the mutagenic call (Test System: AMES SALMONELLA TYPHIMURIUM, Strain/Indicator: TA100, Metabolic Activation: RAT, LIVER, S-9, KANECHLOR 500, Method: PREINCUBATION) was “inactive; negative”.
Regarding `Oc1c(Cl)cc(Cl)c(Cl)c1O`, the mutagenic call by setting is: (Test System: CHINESE HAMSTER V-79, Strain/Indicator: V-79/6-THIOGUANINE, Metabolic Activation: NONE, Method: STANDARD PLATE) “active; positive”; (Test System: CHINESE HAMSTER V-79, Strain/Indicator: V-79/6-THIOGUANINE, Metabolic Activation: PRIMARY RAT HEPATOCYTES, Method: STANDARD PLATE) “inactive; negative”.
`Nc1cccc2nc3ccccc3nc12`: the mutagenic call reads like this: under setting [1], “active; positive”; (Test System: AMES SALMONELLA TYPHIMURIUM, Strain/Indicator: TA98, Metabolic Activation: RAT, LIVER, S-9, PCB, Method: PREINCUBATION) “inactive; negative”.
For `CC1(C)[C@H](C(=O)OCc2cccc(Oc3ccccc3)c2)[C@@H]1C=C(Cl)Cl`, the mutagenic call by setting is: (Test System: AMES SALMONELLA TYPHIMURIUM, Strain/Indicator: TA97, Metabolic Activation: NONE, Method: STANDARD PLATE) “inactive; negative”; (Test System: AMES SALMONELLA TYPHIMURIUM, Strain/Indicator: TA97, Metabolic Activation: RAT, LIVER, S-9, PHENOBARBITONE, Method: STANDARD PLATE) “inactive; negative”; (Test System: AMES SALMONELLA TYPHIMURIUM, Strain/Indicator: TA98, Metabolic Activation: NONE, Method: STANDARD PLATE) “inactive; negative”; (Test System: AMES SALMONELLA TYPHIMURIUM, Strain/Indicator: TA98, Metabolic Activation: RAT, LIVER, S-9, PHENOBARBITONE, Method: STANDARD PLATE) “inactive; negative”; (Test System: AMES SALMONELLA TYPHIMURIUM, Strain/Indicator: TA100, Metabolic Activation: NONE, Method: STANDARD PLATE) “inactive; negative”; (Test System: AMES SALMONELLA TYPHIMURIUM, Strain/Indicator: TA100, Metabolic Activation: RAT, LIVER, S-9, PHENOBARBITONE, Method: STANDARD PLATE) “inactive; negative”. In addition, the mutagenic call runs as follows: (Test System: AMES SALMONELLA TYPHIMURIUM, Strain/Indicator: TA104, Metabolic Activation: NONE, Method: STANDARD PLATE) “inactive; negative”; (Test System: AMES SALMONELLA TYPHIMURIUM, Strain/Indicator: TA104, Metabolic Activation: RAT, LIVER, S-9, PHENOBARBITONE, Method: STANDARD PLATE) “inactive; negative”.
Take `Cc1cccc(C#N)c1`: the mutagenic call was “inactive; negative” (Test System: AMES SALMONELLA TYPHIMURIUM, Strain/Indicator: TA97, Metabolic Activation: HAMSTER, LIVER, S-9, AROCLOR 1254 (10%), Method: PREINCUBATION); “inactive; negative” (Test System: AMES SALMONELLA TYPHIMURIUM, Strain/Indicator: TA97, Metabolic Activation: HAMSTER, LIVER, S-9, AROCLOR 1254 (30%), Method: PREINCUBATION); “inactive; negative” (Test System: AMES SALMONELLA TYPHIMURIUM, Strain/Indicator: TA97, Metabolic Activation: NONE, Method: PREINCUBATION); “inactive; negative” (Test System: AMES SALMONELLA TYPHIMURIUM, Strain/Indicator: TA97, Metabolic Activation: RAT, LIVER, S-9, AROCLOR 1254 (10%), Method: PREINCUBATION); “inactive; negative” (Test System: AMES SALMONELLA TYPHIMURIUM, Strain/Indicator: TA97, Metabolic Activation: RAT, LIVER, S-9, AROCLOR 1254 (30%), Method: PREINCUBATION); “inactive; negative” (Test System: AMES SALMONELLA TYPHIMURIUM, Strain/Indicator: TA98, Metabolic Activation: HAMSTER, LIVER, S-9, AROCLOR 1254 (10%), Method: PREINCUBATION). Further, the mutagenic call by setting is: (Test System: AMES SALMONELLA TYPHIMURIUM, Strain/Indicator: TA98, Metabolic Activation: HAMSTER, LIVER, S-9, AROCLOR 1254 (30%), Method: PREINCUBATION) “inactive; negative”; under setting [1], “inactive; negative”; (Test System: AMES SALMONELLA TYPHIMURIUM, Strain/Indicator: TA98, Metabolic Activation: RAT, LIVER, S-9, AROCLOR 1254 (10%), Method: PREINCUBATION) “inactive; negative”; (Test System: AMES SALMONELLA TYPHIMURIUM, Strain/Indicator: TA98, Metabolic Activation: RAT, LIVER, S-9, AROCLOR 1254 (30%), Method: PREINCUBATION) “inactive; negative”; (Test System: AMES SALMONELLA TYPHIMURIUM, Strain/Indicator: TA100, Metabolic Activation: HAMSTER, LIVER, S-9, AROCLOR 1254 (10%), Method: PREINCUBATION) “inactive; negative”; (Test System: AMES SALMONELLA TYPHIMURIUM, Strain/Indicator: TA100, Metabolic Activation: HAMSTER, LIVER, S-9, AROCLOR 1254 (30%), Method: PREINCUBATION) “inactive; negative”. Moreover, the mutagenic call by setting is: under setting [2], “inactive; negative”; (Test System: AMES SALMONELLA TYPHIMURIUM, Strain/Indicator: TA100, Metabolic Activation: RAT, LIVER, S-9, AROCLOR 1254 (10%), Method: PREINCUBATION) “inactive; negative”; (Test System: AMES SALMONELLA TYPHIMURIUM, Strain/Indicator: TA100, Metabolic Activation: RAT, LIVER, S-9, AROCLOR 1254 (30%), Method: PREINCUBATION) “inactive; negative”; (Test System: AMES SALMONELLA TYPHIMURIUM, Strain/Indicator: TA1535, Metabolic Activation: HAMSTER, LIVER, S-9, AROCLOR 1254 (10%), Method: PREINCUBATION) “inactive; negative”; (Test System: AMES SALMONELLA TYPHIMURIUM, Strain/Indicator: TA1535, Metabolic Activation: HAMSTER, LIVER, S-9, AROCLOR 1254 (30%), Method: PREINCUBATION) “inactive; negative”; (Test System: AMES SALMONELLA TYPHIMURIUM, Strain/Indicator: TA1535, Metabolic Activation: NONE, Method: PREINCUBATION) “inactive; negative”. Besides, the mutagenic call runs as follows: (Test System: AMES SALMONELLA TYPHIMURIUM, Strain/Indicator: TA1535, Metabolic Activation: RAT, LIVER, S-9, AROCLOR 1254 (10%), Method: PREINCUBATION) “inactive; negative”; (Test System: AMES SALMONELLA TYPHIMURIUM, Strain/Indicator: TA1535, Metabolic Activation: RAT, LIVER, S-9, AROCLOR 1254 (30%), Method: PREINCUBATION) “inactive; negative”.

The values are drawn from PubChem BioAssay AID1259407 (Chemical Carcinogenesis Research Information System (CCRIS), 2018).
